In patent publication US20110059114A1, “Compositions and Methods for the Treatment of Radioresistant Glioma Stem Cells” (DUKE UNIVERSITY, priority 2009, published 2011):

What was measured:
Format in all cases: cell-based, human
Notch signaling = experiment: Notch-responsive luciferase reporter (RBP-Jκ reporter) assay; settings: T4302 CD133+ cells; 2 μM DAPT or 0.5 μM L685,458 over night
Excerpt: FIG. 1 is a series of graphs illustrating that γ-secretase inhibitors reduce cell growth and clonogenic survival of glioma stem cells following radiation. (A) T4302 CD133+ glioma stem cells were transfected with a Notch-responsive luciferase reporter (RBP-JK reporter) pre-mixed with the vector directing constitutive expression of Renilla luciferase. Cells were left unirradiated or irradiated at 3 Gy, and were then collected to measure luciferase activities at time points as indicated. […] The relative mRNA levels of Hes2 were determined by quantitative real-time PCR at the time points as indicated. […] Total viable cell numbers were then determined by the CellTiter-Glo Luminescent Cell Viability Assay (Promega) for the following five days. […] Cells were then plated to form neurospheres, and the surviving fractions were determined as described in methods. […] (F,G) Neurosphere formation of T3359 and T4105 CD 133+ cells treated with GSIs alone, 3-Gy radiation alone, or the combination was determined as described in FIG. 1E. *: p<0.05 by Student's t-test; #: p<0.001 by one-way ANOVA.
Luciferase assay. […] The luciferase activities were determined by the Dual-luciferase assay system (Promega).

Mcl-1 = experiment: Immunoblotting of Mcl-1; settings: 2 μM DAPT, T4302 CD133+ cells
Description: FIG. 5 is a set of immunoblots and a graph illustrating that the Notch pathway regulates radioresistance of glioma stem cells via the Akt pathway and Mcl-1. T4302 CD 133+ cells were infected with control lentivirus or lentivirus directing expression of NICD2. Cells were pre-treated with or without 2 μM DPAT for 4 hours and exposed to 3-Gy radiation. Irradiated cells were collected at 24 or 48 hours after radiation, and sham-irradiated cells were collected at 48 hours after radiation. (A, C, D) Protein levels of phospho-Akt (S473), total Akt, PTEN, Bcl-2, Bcl-xL, Mcl-1, phospho-p53 (S15), total p53 and PUMA were assessed by immunoblotting. Actin was blotted as the loading control. (B) Control cells or NICD2-expressing cells were pre-treated with 10 μM PI3K inhibitor, LY294002, or 50 μM Akt inhibitor III (SH-6), for 4 hours prior to radiation exposure. Relative caspase 3/7 activities were determined at 48 hours after radiation exposure. #: p<0.001, by one-way ANOVA.
Antibodies, DNA constructs, lentiviruses and other reagents. The antibodies purchased from Cell Signaling Technology (Danvers, M A) include phosphor-S296-Chk1 (2349), total Chk1 (2345), phosphor-T68-Chk2 (2661), total Chk2 (2662), phospho-5473 Akt (#9271), total Akt (#9272), PTEN (#9556), phospho-S15-p53 (#9286), Bcl-2 (#2870), Bcl-xL (#2764), Mcl-1 (#4572), Puma (#4976). […]

T4302 CD133+ cells = experiment: Trypan blue exclusion assay; settings: two days after 3-Gy radiation
Description: FIG. 2 is a series of graphs illustrating that γ-secretase inhibitors enhance radiation-induced cell death in glioma stem cells. (A) T4302 CD 133+ cells were pre-treated with DAPT or L685,458 for 4 hours and irradiated at 3 Gy. Percentage of dead cells was determined by trypan blue exclusion assay at 48 hours after radiation exposure. (B) T4302 CD 133+ cells were treated with GSIs ±radiation as indicated. Cells were then plated at 3000 cells per well in 96-well plates. Relative caspase 3/7 activities were determined by normalizing caspase activities to the corresponding cell titers. (C) T4302 CD 133+ cells were treated as described in FIG. 2A. 24 or 48 hours after radiation exposure, cells were labeled with FITC-conjugated Annexin V staining kit (BD Sciences) according to manufacturer's instructions and analyzed by flow cytometry. (D) T4302 CD 133+ cells were pre-treated with 2 μM DAPT for 4 hours, and were left unirradiated or irradiated at 1, 2 or 3 Gy. Relative caspase 3/7 activities were determined at 72 hours after radiation. (E) T4302 CD133+ cells were pre-treated with DAPT at indicated concentrations for 4 hours and irradiated at 3 Gy. Relative caspase activities were determined at 48 or 72 hours after radiation. *: p<0.01 by Student's t-test; #: p<0.01 by one-way ANOVA.

`CC(NC(=O)Cc1cc(F)cc(F)c1)C(=O)NC(C(=O)OC(C)(C)C)c1ccccc1` [DAPT, N-[N-(3,5-Difluorophenacetyl-L-alanyl)]-S-phenylglycine t-Butyl Ester] was tested, and the “Notch signaling in glioma stem cells (Notch-responsive luciferase reporter)” value (Notch signaling) was “blocked”, the “levels of Mcl-1” value (Mcl-1) was “decreased” and the “levels of Mcl-1 proteins of a smaller size” value (Mcl-1) was “increased”. It also gave a dead cells (T4302 CD133+ cells) of 60%.
